Assay results taken from the NIST ThermoML archive (doi:10.1016/j.jct.2017.12.023).

Assay: refractive index (Na D-line) (dimensionless); xn = mol fraction of the nth substance listed
Settings: 100 kPa, Liquid, Standard Abbe refractometry

CCOS(=O)(=O)[O-].CCn1cc[n+](C)c1 [1-ethyl-3-methylimidazolium ethyl sulfate] + CN1CCCC1=O
refractive index
Settings | 288.15 K | 293.15 K | 298.15 K | 303.15 K | 308.15 K | 313.15 K | 318.15 K | 323.15 K | 328.15 K | 333.15 K
x1 = 0.1009 | 1.47616 | 1.47418 | 1.47223 | 1.47026 | 1.46833 | 1.46634 | 1.4644 | 1.46246 | 1.46054 | 1.45863
x1 = 0.2012 | 1.47863 | 1.47679 | 1.47496 | 1.47313 | 1.4713 | 1.46948 | 1.46772 | 1.4659 | 1.46409 | 1.46232
x1 = 0.3021 | 1.47981 | 1.47807 | 1.47633 | 1.4746 | 1.47285 | 1.47118 | 1.4695 | 1.46777 | 1.46607 | 1.46438
x1 = 0.4012 | 1.48047 | 1.47881 | 1.47714 | 1.47547 | 1.47384 | 1.47225 | 1.47069 | 1.46906 | 1.46742 | 1.46584
x1 = 0.4973 | 1.48086 | 1.47925 | 1.47766 | 1.47608 | 1.47453 | 1.473 | 1.47143 | 1.46985 | 1.46828 | 1.46677
x1 = 0.596 | 1.48094 | 1.47939 | 1.47787 | 1.47635 | 1.47488 | 1.47343 | 1.47195 | 1.47045 | 1.46895 | 1.46746
x1 = 0.6998 | 1.48099 | 1.47951 | 1.47804 | 1.47659 | 1.47517 | 1.47375 | 1.47229 | 1.47084 | 1.46939 | 1.46794
x1 = 0.7961 | 1.48127 | 1.47983 | 1.47841 | 1.47701 | 1.47561 | 1.47423 | 1.47284 | 1.47143 | 1.47005 | 1.46865
x1 = 0.8821 | 1.48147 | 1.48006 | 1.47867 | 1.47728 | 1.47592 | 1.47453 | 1.47317 | 1.4718 | 1.47044 | 1.4691
x1 = 1 | 1.48155 | 1.48018 | 1.47882 | 1.47746 | 1.47611 | 1.47474 | 1.47341 | 1.47206 | 1.47075 | 1.46943

CCOS(=O)(=O)[O-].CCn1cc[n+](C)c1 [1-ethyl-3-methylimidazolium ethyl sulfate] + CCCCCCO
refractive index
Settings | x1 = 0.1016 | x1 = 0.2016 | x1 = 0.3005 | x1 = 0.3989 | x1 = 0.4975 | x1 = 0.5956 | x1 = 0.6647 | x1 = 0.7947 | x1 = 0.897 | x1 = 1
288.15 K | 1.42855 | 1.43639 | 1.44364 | 1.45017 | 1.45653 | 1.46223 | 1.46592 | 1.47274 | 1.47731 | 1.48155
293.15 K | 1.42666 | 1.4346 | 1.44194 | 1.44856 | 1.45499 | 1.46075 | 1.46447 | 1.47132 | 1.47593 | 1.48018
298.15 K | 1.42478 | 1.43283 | 1.44025 | 1.44701 | 1.45346 | 1.45927 | 1.46303 | 1.4699 | 1.47456 | 1.47882
303.15 K | 1.4229 | 1.43107 | 1.43858 | 1.44545 | 1.45193 | 1.4578 | 1.4616 | 1.46848 | 1.4732 | 1.47746
308.15 K | 1.42103 | 1.42932 | 1.43692 | 1.44387 | 1.4504 | 1.45631 | 1.46017 | 1.46706 | 1.47182 | 1.47611
313.15 K | 1.41917 | 1.42758 | 1.43525 | 1.44225 | 1.44886 | 1.45481 | 1.45872 | 1.46564 | 1.47044 | 1.47474
318.15 K | 1.41729 | 1.42582 | 1.43358 | 1.44065 | 1.44735 | 1.45333 | 1.45726 | 1.46423 | 1.46907 | 1.47341
323.15 K | 1.41543 | 1.42407 | 1.43195 | 1.4391 | 1.44582 | 1.45184 | 1.45582 | 1.46285 | 1.46769 | 1.47206
